Values quoted from earlier work, collected in patent publication US8476466B2 (priority 2008, dated 2013).

System: mice
Details: mouse, in vivo

C[As+](C)(C)CC(=O)[O-] [arsenobetaine]
50% lethal dose (LD50, in mice): 10000 mg/kg

arsenic acid
50% lethal dose (LD50, in mice): 14 to 18 mg/kg
